From patent publication US11111484B2, “Streptococcus bacteriophage lysins for detection and treatment of gram positive bacteria” (priority 2011, dated 2021) come the findings set out here.

The test system of one experiment is MRSA strain MW2. Put plainly: resistance assay, exposure to incrementally increasing concentrations. The experiment is classed as cell-based, Staphylococcus aureus. The settings on record: concentration doubled daily from 1/32 to 4× MIC over 8 days.
Another experiment relates to MSSA strain 8325. The experiment is described as above. To be noted: MSSA 8325; concentration doubled daily from 1/32 to 4× MIC over 8 days. The class given is cell-based, Staphylococcus aureus.

Take `C/C(=C\C(=O)OCCCCCCCCC(=O)O)C[C@@H]1OC[C@H](C[C@@H]2O[C@H]2[C@@H](C)[C@H](C)O)[C@@H](O)[C@H]1O` [mupirocin, reference compound]: the development of resistance entry in the experiment on MRSA strain MW2 and in the experiment with MSSA strain 8325 was “developed resistance” throughout.
